Data on three compounds can be found in patent publication US20120225909A1, “INDAZOLE ANALOG” (priority 2009, published 2012).

For data set [1], the target named is T1, human α1A-adrenergic receptor (Homo sapiens, UniProt P35348).
T1 sequence (P35348 1-466): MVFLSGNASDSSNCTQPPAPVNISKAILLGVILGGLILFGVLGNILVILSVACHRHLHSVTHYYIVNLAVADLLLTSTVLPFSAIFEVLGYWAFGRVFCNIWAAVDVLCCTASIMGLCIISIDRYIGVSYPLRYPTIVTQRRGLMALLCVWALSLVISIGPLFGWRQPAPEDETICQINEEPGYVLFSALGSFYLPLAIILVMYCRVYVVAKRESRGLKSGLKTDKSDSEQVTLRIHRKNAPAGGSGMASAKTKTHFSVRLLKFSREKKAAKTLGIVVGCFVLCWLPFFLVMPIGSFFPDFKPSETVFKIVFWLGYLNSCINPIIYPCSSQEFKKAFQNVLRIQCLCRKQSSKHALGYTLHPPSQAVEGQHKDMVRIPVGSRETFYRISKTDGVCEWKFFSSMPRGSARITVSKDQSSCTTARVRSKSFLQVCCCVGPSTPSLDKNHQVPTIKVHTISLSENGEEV
Nature of the data set: Test Case 4-A: human α1A-adrenergic receptor agonist activity (HEK293, Ca flux, Fura-2). The arrangement: expressed in transfected cells; host or cells: HEK293 cells, pcDNA3.1. The class given is cell-based. Put shortly:
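Fura-2AM-loaded HEK293 cells transfected with human α1A were preincubated for 180 s. Compound (sample plate 10^−5 to 10^−12 M) was added after ~30 s of 340/380 nm excitation ratio reading (500 nm emission, 2-s intervals), followed by 270 s more reading. Ca flux is the peak height: maximum ratio after addition minus the pre-addition ratio.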

The target in data set [2] is T2, human β3-adrenergic receptor (Homo sapiens, UniProt P13945).
T2 construct: A full-length human β3 gene is obtained from a human genomic library (made by Clontech) using this as the probe; expressed in transfected cells; host or cells: CHO (Chinese hamster ovary) cells, pcDNA3
T2 sequence (P13945 whole entry): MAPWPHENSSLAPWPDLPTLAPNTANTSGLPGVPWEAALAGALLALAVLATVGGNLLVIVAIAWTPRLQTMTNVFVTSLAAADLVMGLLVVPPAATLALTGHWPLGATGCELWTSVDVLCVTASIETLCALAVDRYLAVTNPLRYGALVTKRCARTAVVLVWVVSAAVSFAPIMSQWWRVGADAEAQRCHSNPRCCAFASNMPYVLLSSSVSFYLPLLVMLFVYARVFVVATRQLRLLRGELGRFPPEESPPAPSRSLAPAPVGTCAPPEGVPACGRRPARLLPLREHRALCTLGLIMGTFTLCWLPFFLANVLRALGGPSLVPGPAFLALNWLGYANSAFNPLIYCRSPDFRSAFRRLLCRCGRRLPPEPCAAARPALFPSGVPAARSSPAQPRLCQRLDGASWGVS
Nature of the data set: Test Case 1-B: human β3-adrenergic receptor agonist activity (cAMP-Screen, 96-well). The class given is cell-based. Put shortly: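 CHO cells stably transfected with full-length human β3 gene, serum-starved 15 min, then exposed to serially diluted compound in Ham's F-12 with 100 mmol/L HEPES and 1 mmol/L IBMX (diluent concentrations) for 30 min. Cells lysed 30 min at 37 °C; cAMP quantified by cAMP-Screen immunoassay.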

Data set [3] has as its system pentobarbital-anesthetized rats. Nature of the data set: Test Case 9: effects on the blood pressure and heart rate in pentobarbital-anesthetized rats. The class given is in vivo, rat. To be noted: anesthetized male SD rats; 3 mg/kg intravenous over 30 seconds; maximum change, mean±standard deviation.
The target of data set [4] is T3, human β1-adrenergic receptor (Homo sapiens, UniProt P08588).
T3 construct: expressed in transfected cells; host or cells: CHO (Chinese hamster ovary) cells, pcDNA3
T3 sequence (P08588 whole entry): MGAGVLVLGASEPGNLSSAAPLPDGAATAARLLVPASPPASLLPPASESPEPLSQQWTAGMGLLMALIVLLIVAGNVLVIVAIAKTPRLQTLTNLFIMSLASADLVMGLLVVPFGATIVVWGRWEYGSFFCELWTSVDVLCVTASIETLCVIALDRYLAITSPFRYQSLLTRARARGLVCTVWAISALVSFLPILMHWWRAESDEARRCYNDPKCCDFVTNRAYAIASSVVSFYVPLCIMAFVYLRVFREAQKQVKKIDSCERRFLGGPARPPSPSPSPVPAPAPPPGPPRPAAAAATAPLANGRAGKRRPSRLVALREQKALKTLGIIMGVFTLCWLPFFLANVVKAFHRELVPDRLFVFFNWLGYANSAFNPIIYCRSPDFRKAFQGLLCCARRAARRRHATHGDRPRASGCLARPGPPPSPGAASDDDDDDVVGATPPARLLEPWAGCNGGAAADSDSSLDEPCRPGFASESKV
Nature of the data set: Test Case 2-B: human β1-adrenergic receptor agonist activity. The class given is cell-based. Particulars: read-out: β1 receptor I.A. The method, then: Measurement of Human β1-Adrenergic Receptor Agonist Activity
The human β1-adrenergic receptor agonist activity is measured by the same method as in Test Case 1-B using CHO (Chinese hamster ovary) cells transfected by a human β1 gene inserted in pcDNA3 (Invitrogen).

Data set [5] deals with T4, human β2-adrenergic receptor (Homo sapiens, UniProt P07550).
T4 construct: expressed in transfected cells; host or cells: CHO (Chinese hamster ovary) cells, pcDNA3
T4 sequence (P07550 whole entry): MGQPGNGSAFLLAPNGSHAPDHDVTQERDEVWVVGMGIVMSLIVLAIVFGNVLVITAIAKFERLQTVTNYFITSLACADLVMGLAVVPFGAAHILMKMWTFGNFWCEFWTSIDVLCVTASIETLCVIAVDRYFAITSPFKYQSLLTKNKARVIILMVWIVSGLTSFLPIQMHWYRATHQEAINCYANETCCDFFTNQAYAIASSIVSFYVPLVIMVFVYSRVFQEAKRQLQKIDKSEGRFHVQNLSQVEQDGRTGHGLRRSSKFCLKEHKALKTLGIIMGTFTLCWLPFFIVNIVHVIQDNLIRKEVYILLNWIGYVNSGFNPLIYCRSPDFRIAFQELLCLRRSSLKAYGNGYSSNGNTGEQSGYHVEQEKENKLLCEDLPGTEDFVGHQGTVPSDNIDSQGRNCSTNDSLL
As to the kind of experiment: Test Case 3-B: human β2-adrenergic receptor agonist activity. The data set is classed as cell-based. To be noted: read-out: β2 receptor I.A. The procedure: Measurement of Human β2-Adrenergic Receptor Agonist Activity
The human β2-adrenergic receptor agonist activity is measured by the same method as in Test Case 1-B using CHO (Chinese hamster ovary) cells transfected by a human β2 gene inserted in pcDNA3 (Invitrogen).

Setting [6] is: HEK293; read-out: α1A receptor I.A.
[7] abbreviates: 0.5 h; read-out: β3 receptor I.A.

As a reminder, the EC50 is the concentration that produces a half-maximal response. A higher EC50 goes with a less potent agent.

Read-outs that look alike come from different tables or passages of the source.

Regarding `Cc1n[nH]c2cc(OCCNC[C@H](O)c3cccc(NS(=O)(=O)C4CCC4)c3)ccc12` [ex3, (R)—N-(3-(1-hydroxy-2-(2-(3-methylindazol-6-yloxy)ethylamino)ethyl)phenyl)cyclobutanesulfonamide], the Emax is 0% in data set [1] (HEK293, read-out: α1A receptor I.A.); 105% in data set [2] (0.5 h, read-out: β3 receptor I.A.); 4% in data set [4]; 1% in data set [5]. In data set [2] (Test Case 1-B; CHO cells, cAMP), this compound yielded an EC50 of 17 nM. Also, in data set [3], the “increase in MBP (%)” value is given as 2.0 ± 1.6%.
Take `O=S(=O)(Nc1cccc([C@@H](O)CNCCOc2ccc3c(OC(F)F)n[nH]c3c2)c1)C1CC1` [ex4, (R)—N-(3-(2-(2-(3-(difluoromethoxy)-indazol-6-yloxy)ethylamino)-1-hydroxyethyl)phenyl)cyclopropanesulfonamide]: the Emax is 0% in data set [1] (setting [6]), 77% in data set [2] (setting [7]), 2% in data set [4] and 1% in data set [5]. In data set [2] (Test Case 1-B; CHO cells, cAMP), this compound gave a half-maximal effective concentration (EC50) of 38 nM. Further, the “increase in MBP (%)” value in data set [3] is listed as 2.4 ± 2.2%.
In the case of `Cc1n[nH]c2cc(OCCNC[C@H](O)c3cccc(NS(=O)(=O)c4ccccc4F)c3)ccc12` [ex235, (R)-2-fluoro-N-(3-(1-hydroxy-2-(2-(3-methylindazol-6-yloxy)ethylamino)ethyl)phenyl)benzenesulfonamide], the Emax in data set [1] (setting [6]) was found to be 0%; in data set [2] (setting [7]) it was 113%; in data set [4], 16%; in data set [5] it was 2%. In addition, the EC50 in data set [2] (Test Case 1-B; CHO cells, cAMP) turned out to be 28 nM. Further, the “increase in MBP (%)” value in data set [3] is recorded as 3.4 ± 1.0%.
